{
  "source": "patent US4401671A",
  "about": "“Treatment of giardiasis and trichomoniasis” (priority 1982, dated 1983)",
  "key": {"[1]": {"settings": "cited from earlier work"}, "Giardia lamblia [2]": {"system": "Giardia lamblia", "settings": "background statement, human infection; cited from earlier work"}, "Trichomonas foetus": {"system": "Trichomonas foetus", "test": "In vitro anti-Trichomonas foetus activity (growth inhibition, viable cell count)", "assay_type": "cell-based, T. foetus KV1", "settings": "for IC50: Tritrichomonas foetus, read-out: Anti-T. foetus ED50"}, "Giardia lamblia [3]": {"system": "Giardia lamblia", "test": "In vitro anti-Giardia lamblia activity (growth inhibition, viable cell count by hemacytometer)", "assay_type": "cell-based", "settings": "Giardia duodenalis, read-out: Anti-G. lamblia ED50", "method": "About 1.0-2.0 ml of a nutrient medium, for example, the modified Diamond's TPS medium at pH 7.05, together with about 10% by volume of heat-inactivated serum and about 1% by volume of antibiotic-antimycotic solution is placed in each well of a multiwell plate. To this mixture, an aliquot of a suspension of G. lamblia cells containing about 10^6 organisms is added. Subsequently, each well is inoculated with a known concentration of one of the active compounds. The multiwell plate containing the individual culture samples is incubated under anaerobic conditions at about 37° C. for about 16-24 hrs. The number of viable cells remaining in each well are then counted, such as with a hemacytometer. […]\nIn each well of a mutliwell plate is placed 1.4 ml of media mix containing Diamond's TPS medium (see Table 2) at pH 7.05, 10% by volume of heat-inactivated fetal bovine serum, and 1% by volume of an antibiotic-antimycotic solution (see Table 3). […] The cells are resuspended in a small volume of the Diamond's medium, counted, and each well inoculated with approximately 10^6 organisms. […] After 24 hours of incubation each well is mixed and counted for viable organisms using a hemacytometer. The percentage of survival is determined by comparing the treated wells to controls treated with dimethylsulfoxide. […]"}, "T. vaginalis": {"system": "T. vaginalis", "test": "anti-T. vaginalis activity", "assay_type": "cell-based, Trichomonas vaginalis", "settings": "as shown in Table 1"}},
  "note": "Like-named read-outs stand apart in the source and are kept apart here.",
  "data": [
    {"compound": "CCN(CC)CCCC(C)Nc1c2ccc(Cl)cc2nc2ccc(OC)cc12", "note": "(stereo not drawn) [Atabrine]", "values": [
      {"measurement": "adverse side effects (in words)", "setting": "[1]; in vivo", "value": "known to cause adverse side effects"},
      {"measurement": "treatment of giardiasis (in words)", "setting": "Giardia lamblia [2]", "value": "successfully treated"}
    ]},
    {"compound": "Cc1ncc([N+](=O)[O-])n1CCO", "note": "[Flagyl, metronidazole]", "values": [
      {"measurement": "adverse side effects (in words)", "setting": "[1]; in vivo", "value": "known to cause adverse side effects"},
      {"measurement": "treatment of giardiasis (in words)", "setting": "Giardia lamblia [2]", "value": "successfully treated"}
    ]},
    {"compound": "[O-][n+]1ccnc(O)c1", "note": "[emimycin, 2-hydroxypyrazine-4-oxide]", "values": [
      {"measurement": "IC50", "setting": "Trichomonas foetus; effective concentration for 50% inhibition of growth, 37° C., 24 hours, T. foetus KV1", "value": "< 1", "unit": "µg/mL"},
      {"measurement": "IC50", "setting": "Giardia lamblia [3]; effective concentration for 50% inhibition of growth, 37° C., anaerobic, about 16-24 hrs (24 hours in Example 1)", "value": 22, "unit": "µg/mL"},
      {"measurement": "anti-T. vaginalis activity (in words)", "setting": "T. vaginalis", "value": "active anti-T. vaginalis agents"}
    ]},
    {"compound": "O=c1[nH]cc(F)c(=O)[nH]1", "note": "[fluorouracil, 5-fluoro-2,4-(1H, 3H)pyrimidenedione]", "values": [
      {"measurement": "anti-T. foetus activity (in words)", "setting": "Trichomonas foetus; 37° C., 24 hours", "value": "effective anti-T. foetus agent"},
      {"measurement": "IC50", "setting": "Trichomonas foetus; 24 h", "value": 3, "unit": "µg/mL"},
      {"measurement": "IC50", "setting": "Giardia lamblia [3]", "value": 100, "unit": "µg/mL"}
    ]},
    {"compound": "O=C1OCCN1N=Cc1ccc([N+](=O)[O-])o1", "note": "[furazolidione]", "values": [
      {"measurement": "adverse side effects (in words)", "setting": "[1]; background statement", "value": "known to cause adverse side effects"},
      {"measurement": "treatment of giardiasis (in words)", "setting": "Giardia lamblia [2]", "value": "successfully treated"}
    ]}
  ]
}
